The record followed here is patent US4851338A, “Method for diagnosing the presence of bacteria” (Biocarb AB, priority 1982, dated 1989).

In data set [1] the test system is NK-cells activity (lymphocytes) against K-562 cells. Nature of the data set: Inhibition of NK-cells activity (chromium release cytotoxicity of lymphocytes against K-562). It counts as cell-based, human. To be noted: for % specific cytotoxicity: ratio 20:1; for cytolytic effect after preincubation with the oligosaccharides: in concentrations down to 0.3 mg/ml. As to the method: Lymphocytes isolated from peripheral blood drained from normal donors have the ability of exerting a cytotoxic, (i.e. cell killing activity against certain types of cells in culture. In the instant example there is used a human leukemia cell line called K-562 as a target cell for such cytolytic activity.
Method: K-562 cells intracellularly labelled with radioactive chromium are incubated with effector cells (lymphocytes) for 4 hours at 37° C. The cytotoxic effect is measured as the quantity of isotope released in relation to remaining isotope in the target cells. For details see Malmstrom, P., Jonsson, Å, and Sjogren, H.O. "Countercurrent distribution of lymphocytes from human peripheral blood in an aqueous two-phase system. II. Separation into subsets of lymphocytes with distinctive functions". Cell Immunol. 53:51-64, 1980. For studying inhibiting substances effector cells (6×10^6 cells/ml) are preincubated with the respective oligosaccharides diluted in cultivating medium for half an hour at 37° C. After washing with centrifugation the effector cells are transferred directly to the target cells.

The test system of data set [2] is haemagglutination between GRBC and Bordetella pertussis bacteria or fimbriae thereof. Nature of the data set: Inhibition of haemagglutination of goose erythrocytes (GRBC) with Bordetella pertussis. It counts as cell-based. The conditions noted are these: for minimal effective concentration: Bordetella pertussis, Erythrocyte, 4 h, read-out: Minimum inhibitory concentration. As to the method: In the tests bacteria of the type Bordetella pertussis newly sampled from an individual suffering from whooping cough were used. The bacteria were cultivated on CFA-agar at +37° C. for 18 hours. The bacterial growth was slurried in PBS, pH 7.2 to a density of 1×10^10 bacteria/ml. Fimbriae from the bacterium were obtained in the following manner:
The bacteria were cultivated on Roux flasks with CFA-agar. After incubation at +37° for 24 hours the bacteria were harvested by adding 10 ml PBS/flask and sterile glass balls. The flasks were shaken and the bacterial suspension removed. The bacteria were pelletized by centrifugation (3000×g, +4°, 30 min.). The supernatant was removed by suction. The bacteria were resuspended in 10 ml PBS and the suspension was treated in a Waring blendor 2 x 20 seconds. The suspension was centrifuged (5000×g, +4°, 30 min.) to pelletize the bacteria. The supernatant containing fimbriae was removed by suction. The bacterial pellet is resuspended, treated in a Waring blender and after centrifugation the supernatant is again recovered. The two supernatants are pooled and ammonium sulphate is added to a concentration of 30 %. After stirring the supernatants are allowed to stand at +4° C. for 18 hours, centrifugation then taking place at 5000 ×g. The supernatant was separated and the precipitation was dialyzed against PBS. The solubilized fimbriae fraction was precipitated with ammonium sulphate once more and dialyzed.
Haemagglutination is performed using erythrocytes from geese (GRBC) suspended to a concentration of 3% v/w in PBS. The agglutination tests were carried out so that 50 μl GRBC were mixed with 2-step dilution of antigen 50 μl bacterial suspension or 50 μl fimbriae suspension and 50 μl PBS in microtitre plates. The plates were sealed with Parafilm and incubated at […] for 4 hours and were then recorded. The last well wherein agglutination could be read by the eye is considered as 1 haemagglutinating unit (1 HU).
In the inhibition experiments there were added instead of PBS 50 μl of an oligosaccharide solution, the inhibiting capacity was studied. […]

The subject of data set [3] is haemagglutination between sheep erythrocytes and S. saprophyticus bacteria (Mc 2 and Mc 194). Nature of the data set: Inhibition of haemagglutination of sheep erythrocytes with Staphylococcus saprophyticus. The conditions noted are these: for minimal effective concentration: Staphylococcus saprophyticus, Erythrocyte, read-out: Minimum inhibitory con. It is filed as cell-based. As for the experimental part: In the tests the bacteria S. saprophyticus strains, both isolated from urine from patents having urinary tract infection, were used. The bacteria were cultivated in tryptone broth over night, pelletized by means of centrifugation and washed twice with PBS, pH 7.2. Haemagglutination was performed using erythrocytes from sheep obtained from sheep blood and washed twice with 0.85 % saline.
In the haemagglutination-indication experiments microtitre plates (Limbo Sc. Comp. Inc) were used. 25 μl of bacterial suspension were titrated in PBS by two-step titre steps, 25 μl of 1% erythrocyte suspension being then added. The haemagglutination titre was determined after incubation of the plates for 2-4 hours in room temperature.
In the inhibition experiments serial dilutions of the relevant inhibitor (50 μl/well) and 25 μl of bacterial suspension diluted to contain 2 HU haemagglutinating units of bacteria were used. The plates were incubated for 30 minutes at 37° C., 25 μl of the erythrocyte suspension being then added to each well.

The test system of the next data set is S. saprophyticus. The experiment in a line: Removal of S. saprophyticus from an infected surface (disinfection). More on the design: species or system Staphylococcus saprophyticus. The conditions noted are these: 0.1 percent by weight aqueous solution, cotton pad. As to the method:
A 0.1 percent by weight aqueous solution of the compound β-D-Galp-(1-4)-D-GNAc is prepared and applied by using a cotton pad on a surface infected by S. saprophyticus.

In data set [4] the test system is adhesion of S. saprophyticus to urinary epithelial cells. The experiment in a line: Inhibition of adherence of S. saprophyticus to urinary epithelial cells. It counts as cell-based, Staphylococcus saprophyticus. To be noted: Staphylococcus saprophyticus, Epithelial cell, 0.75 h, read-out: reduction of the number of adhering bacteria. As for the experimental part:
Cells from urinary epithelium were suspended in cell cultivation medium RPMI 1640 (Flow Ltd) to a concentration of 10^5 cells/ml.
Microorganisms of the type S. saprophyticus were suspended in RPMI 1640 to a concentration of 10^9 bacteria/ml. Oligosaccharides which were tested for their ability of preventing adhesion of S. saprophyticus to urinary epithelial cells were dissolved in RPMI 1640 to a concentration of 5 mg/ml. In the experiments 1 ml of the oligosaccharide solution was incubated with 0.1 ml bacterial suspension at 37° C. for 30 minutes. Urinary epithelial cells were incubated with the bacterial suspension incubated in advance as described above with oligosaccharide solution for 45 minutes at 37° C. As a control there was used a bacterial suspension preincubated with 1 ml RPMI 1640.
Incubated samples were filtrated through a 12μ filter and washed 3 times with PBS. The filter was pressed against microscope slides for a few seconds, the slides being then fixed in methanol for 10 minutes. The slides were dried in air and coloured with acridine orange for 2 minutes. The slides were washed, dried in air and studies in fluorescence microscope. The number of bacteria per cell was counted. In each experiment 50 cells were counted.

Setting [5] is: 0.3 mg/ml oligosaccharide, experiment 1 (without inhibitor 22.3).
[6] abbreviates: 0.3 mg/ml oligosaccharide, experiment 2 (without inhibitor 32.0).
The mark [7] stands for this setting: 1 mg/ml oligosaccharide, experiment 1 (without inhibitor 22.3).
[8] abbreviates: 1 mg/ml oligosaccharide, experiment 2 (without inhibitor 32.0).
Setting [9] is: 3 mg/ml oligosaccharide, experiment 1 (without inhibitor 22.3).
Setting [10] is: 3 mg/ml oligosaccharide, experiment 2 (without inhibitor 32.0).

As to `CC(=O)N[C@H]1[C@H](O[C@@H]2[C@@H](OC[C@H]3O[C@@H](O[C@H]4[C@H](O)[C@@H](NC(C)=O)C(O)O[C@@H]4CO)[C@@H](O)[C@@H](O)[C@@H]3O)O[C@H](CO)[C@@H](O)[C@@H]2O)O[C@H](CO)[C@@H](O[C@@H]2O[C@H](CO)[C@H](O)[C@H](O)[C@H]2O)[C@@H]1O` (stereo partly drawn) [GM1 -penta, β-Galp-(1-4)-β-GNAcp-(1-2)-α-Manp-(1-6)-β-Manp-(1-4)-GNAc], the “% specific cytotoxicity” value was 16.8% in data set [1] (setting [5]); 13.9% in data set [1] (setting [6]); 6.5% in data set [1] (setting [7]); 2.7% in data set [1] (setting [8]); -1.4% in data set [1] (setting [9]); 0.0% in data set [1] (setting [10]). Also, the “cytolytic effect after preincubation with the oligosaccharides” value in data set [1] was “inhibited”. In addition, the results for the minimal effective concentration in data set [2] and in data set [3] were 675 µg/mL and 250 µg/mL, respectively.
Regarding `CC(=O)N[C@H]1[C@H](O[C@@H]2[C@@H](OC[C@H]3O[C@@H](O[C@H]4[C@H](O)[C@@H](NC(C)=O)C(O)O[C@@H]4CO)[C@@H](O)[C@@H](O[C@H]4O[C@H](CO)[C@@H](O)[C@H](O)[C@@H]4O[C@@H]4O[C@H](CO)[C@@H](O[C@@H]5O[C@H](CO)[C@H](O)[C@H](O)[C@H]5O)[C@H](O)[C@H]4NC(C)=O)[C@@H]3O)O[C@H](CO)[C@@H](O)[C@@H]2O)O[C@H](CO)[C@@H](O[C@@H]2O[C@H](CO)[C@H](O)[C@H](O)[C@H]2O)[C@@H]1O` (stereo partly shown) [drawing 7], the minimal effective concentration in data set [2] was 175 µg/mL.
Consider `CC(=O)N[C@H]1C(O)O[C@H](CO)[C@@H](O[C@@H]2O[C@H](CO)[C@H](O)[C@H](O)[C@H]2O)[C@@H]1O` (stereo partly drawn) [β-Galp-(1-4)-GNAc], for which, in the data set on S. saprophyticus, the “removal of the bacterium from the surface” value is listed as “effective removal of the bacterium from the surface”. Moreover, the inhibition at 5000 µg/mL in data set [4] is around 85%. In addition, in data set [3], the minimal effective concentration was 300 µg/mL.
For Asialofetuin, the “% specific cytotoxicity” value stood at 10% in data set [1] (setting [5]); 15% in data set [1] (setting [6]); 7.0% in data set [1] (setting [7]); 5.0% in data set [1] (setting [8]); 1.5% in data set [1] (setting [9]); 1.0% in data set [1] (setting [10]). For the same compound, the “cytolytic effect after preincubation with the oligosaccharides” value in data set [1] is “inhibited”. Besides, the Minimum inhibitory concentration in data set [2] (Inhibition of haemagglutination, 3% GRBC, 2-4 HU bacteria or fimbriae, +44° C., 4 hours) was 150 µg/mL. This compound also displayed a Minimum inhibitory con. in data set [3] (Inhibition of haemagglutination, S. saprophyticus Mc 2 and Mc 194, 2 HU bacteria) of 125 µg/mL.
